Laboratory results taken from US20140378463A1, “IP receptor agonist heterocyclic compounds” (NOVARTIS AG, priority 2012, published 2014).

The molecules below were run against T1, IP receptor (Homo sapiens, UniProt P43119) (assay: cAMP accumulation in CHO cells stably expressing the IP receptor (CHO-IP), PerkinElmer AlphaScreen assay). Conditions: 1 hour at room temperature, 4-parameter logistic fit.
T1 construct: expressed in transfected cells; host or cells: CHO cells stably expressing the IP receptor (CHO-IP)
T1 sequence (P43119 whole entry): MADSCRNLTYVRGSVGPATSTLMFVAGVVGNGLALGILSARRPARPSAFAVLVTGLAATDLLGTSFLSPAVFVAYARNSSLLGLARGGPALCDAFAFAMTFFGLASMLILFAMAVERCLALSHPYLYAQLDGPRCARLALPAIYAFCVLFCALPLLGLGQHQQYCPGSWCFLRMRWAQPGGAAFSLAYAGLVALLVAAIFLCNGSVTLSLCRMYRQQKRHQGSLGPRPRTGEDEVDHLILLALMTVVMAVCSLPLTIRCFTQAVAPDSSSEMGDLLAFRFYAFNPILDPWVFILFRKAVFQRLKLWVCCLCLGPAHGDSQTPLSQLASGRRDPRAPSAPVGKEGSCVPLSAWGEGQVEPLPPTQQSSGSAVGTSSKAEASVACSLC
Type: cell-based
Procedure: Activity of compounds at the IP receptor (IP receptor) is assessed by measuring cAMP accumulation in CHO cells stably expressing the IP receptor (CHO-IP) using the PerkinElmer AlphaScreen assay. This technology measures the endogenous production of cAMP, in a non-radioactive luminescence proximity homogenous assay. A biological reaction occurs between streptavidin coated donor beads, biotinylated cAMP and anti-cAMP acceptor beads, bringing the donor and acceptor beads close enough together so that upon excitation a fluorescence signal is produced. On production of endogenous cAMP, competition between the biotinylated cAMP and cellular-derived cAMP causes a reduction in the fluorescent signal. The reduction in signal is proportional to the amount of cAMP being produced, thus it is possible to quantify the amount of cAMP being produced on stimulation with agonist.
Test and reference compounds are prepared at 100×[final] in 100% DMSO, and diluted 1:3 using a Biomek Fx (Beckman Coulter). This is followed by an intermediate dilution to give 5×[final] in assay buffer (HBSS containing 5 mM HEPES, 0.1% (w/v) BSA). 5 μL of 5×[final] test compounds, reference compounds and buffer/DMSO control are then transferred to a 384-well white OptiPlate, containing 20 μL CHO-IP cell suspension (15,000 cells/well, prepared from frozen), and plate is incubated at room temperature for 1 hour. A cAMP standard curve is constructed for each experiment (concentration range of 10000 nM to 0.001 nM, in assay buffer) and 25 μL of each concentration added to the last two columns of the assay plate. The incubation is terminated by the addition of lysis buffer (dH2O; 0.3% (v v^−1) Tween-20) containing 20 units mL^−1 streptavidin coated donor beads and biotinylated cAMP (pre-incubated for 30 minutes) and 20 units mL^−1 anti-cAMP acceptor beads, which are added to the lysis buffer just before addition to the assay plate. The assay plate is then incubated at room temperature in the dark, for 60 minutes with gentle shaking, and read on the Envision plate reader (Perkin Elmer).
The raw data of the reference compounds, test compounds and controls are converted into cAMP concentrations, using the cAMP standard curve, in GraphPadPrism (Graph Pad Software Inc). EC50 as well as maximal values of the agonist curves are determined using a 4-parameter logistic equation. The % maximum response values of all test compounds are determined using the top of the treprostinil concentration-response curve.

EC50 [nM] | SMILES
275 | CC1c2nc(-c3ccccc3)c(-c3ccccc3)nc2CCN1CCCCCCC(=O)O (racemic) [Example 1, rac-7-(5-methyl-2,3-diphenyl-7,8-dihydropyrido[3,4-b]pyrazin-6(5H)-yl)heptanoic acid]
1.5 | Cc1ccc(-c2nc3c(nc2-c2ccc(C)cc2)C(C)N(CCCCC(=O)O)CC3)cc1 (stereo not drawn) [Example 1.1, 5-(5-Methyl-2,3-di-p-tolyl-7,8-dihydro-5H-pyrido[3,4-b]pyrazin-6-yl)-pentanoic acid]
2.3 | Cc1ccc(-c2nc3c(nc2-c2ccc(C)cc2)C(CCCCCCC(=O)O)N(C)CC3)cc1 (stereo not drawn) [Example 3, 7-(6-Methyl-2,3-dip-tolyl-5,6,7,8-tetrahydropyrido[3,4-b]pyrazin-5-yl)heptanoic acid]
25.9 | Cc1ccc(-c2nc3c(nc2-c2ccc(C)cc2)C(CCCCCC(=O)O)N(C)CC3)cc1 (racemic) [Example 3.1, rac-6-(6-Methyl-2,3-dip-tolyl-5,6,7,8-tetrahydropyrido[3,4-b]pyrazin-5-yl)hexanoic acid]
710 | CC1c2nc(-c3ccccc3)c(-c3ccccc3)nc2CCN1CCCCCCC(=O)O (single isomer, unassigned) [Example 1(ii), (R)-7-(5-methyl-2,3-diphenyl-7,8-dihydropyrido[3,4-b]pyrazin-6(5H)-yl)heptanoic acid or (S)-7-(5-methyl-2,3-diphenyl-7,8-dihydropyrido[3,4-b]pyrazin-6(5H)-yl)heptanoic acid]
5 | Cc1ccc(-c2nc3c(nc2-c2ccc(C)cc2)C(CCCCCC(=O)O)NCC3)cc1 (racemic) [Example 2, rac-6-(2,3-Dip-tolyl-5,6,7,8-tetrahydropyrido[3,4-b]pyrazin-5-yl)hexanoic acid]
190 | CC1c2nc(-c3ccccc3)c(-c3ccccc3)nc2CCN1CCCCCCC(=O)O (single isomer, unassigned) [Example 1(i), (R)-7-(5-methyl-2,3-diphenyl-7,8-dihydropyrido[3,4-b]pyrazin-6(5H)-yl)heptanoic acid or (S)-7-(5-methyl-2,3-diphenyl-7,8-dihydropyrido[3,4-b]pyrazin-6(5H)-yl)heptanoic acid]
5.4 | Cc1ccc(-c2nc3c(nc2-c2ccc(C)cc2)C(CCCCCCC(=O)O)NCC3)cc1 (racemic) [Example 2.1, rac-7-(2,3-Dip-tolyl-5,6,7,8-tetrahydropyrido[3,4-b]pyrazin-5-yl)heptanoic acid]
2 | Cc1ccc(-c2nc3c(nc2-c2ccc(C)cc2)C(C)N(CCCCCC(=O)O)CC3)cc1 (stereo not drawn) [Example 1.2, 6-(5-Methyl-2,3-di-p-tolyl-7,8-dihydro-5H-pyrido[3,4-b]pyrazin-6-yl)-hexanoic acid]
